Measured values reported in the METLIN SMRT retention time set (Domingo-Almenara et al. 2019).

Assay: gradient 5% acetonitrile 3 min, to 50% in 2 min, to 85% in 15 min, held 3 min, 100 µL/min
Details: column: Zorbax Extend-C18 2.1 x 50 mm; eluents: water / acetonitrile, 0.1% formic acid
In short: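 The mobile phases were water and acetonitrile, each with 0.1% formic acid, pumped at 100 μL/min through a Zorbax Extend-C18 column (2.1 × 50 mm, 1.8 μm). Pure standards were injected as mixtures of ~100 molecules and detected by a quadrupole time-of-flight mass spectrometer in positive and negative ionization mode. Retention time came from computationally picked adduct peaks, each inspected by hand.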

| Structure (SMILES) | RP-LC retention time [s] |
| --- | --- |
| COc1ccc(-c2c(C)noc2NC(C)=O)cc1S(=O)(=O)Nc1cccc(SC)c1 | 779 |
| CC(=O)Nc1ccc(NC(=O)Cn2ccc3ccc(-c4nnc(C)o4)cc32)cc1 | 652 |
| COc1ccc(-c2nc3ncccn3c2Nc2ccc(C)cc2C)cc1 | 800 |
| Cc1nc(-c2csc(S(=O)(=O)N3CCC(C(=O)N4CCC(C)CC4)CC3)c2)no1 | 903 |
| COc1ccc(S(=O)(=O)N2CCCC2C(N)=O)cc1 (configuration not stated) | 593 |
| CCCCS(=O)(=O)N1CCc2c(c(-c3nnc(SCC)n3CC)nn2C)C1 | 878 |
| CCOC(=O)c1cc(C2CC2)nc2c1c(=O)n(Cc1cccc(F)c1)c(=O)n2C | 1160 |
| CCOC(=O)Cc1csc(NC(=O)c2cc3cc([N+](=O)[O-])ccc3s2)n1 | 925 |
| Cc1nn(C)cc1S(=O)(=O)Nc1ccc2c(c1)OCCO2 | 641 |
| Cn1cnc(S(=O)(=O)N2CCC(C(=O)Nc3cccc(C#N)c3)CC2)c1 | 674 |
| COCCCNc1ncc(C(=O)O)c(-c2cccc(OC)c2)n1 | 668 |
| O=c1ccc(N2CCCN(S(=O)(=O)c3ccc(F)cc3)CC2)nn1-c1ccc(Cl)cc1 | 926 |
| Fc1ccc(C2Cn3nnc(-c4nc(-c5ccccc5Cl)no4)c3CO2)cc1 (configuration not stated) | 1170 |
| COc1ccc(OC)c(NC(=O)Cn2cccc(-c3nc(-c4ccc(Cl)cc4)no3)c2=O)c1 | 1000 |
| Cc1cccn2cc(C(=O)NCc3cc(F)ccc3F)nc12 | 655 |
| CCOc1ccccc1NS(=O)(=O)c1ccc2c(c1)C(=O)N(C)c1ncccc1O2 | 941 |
| CC(C)CC(=O)Nc1ccc(OCc2cc(C(=O)NC3CC3)no2)cc1 | 747 |
| CCOc1cccc(-c2noc(Cn3c(=O)n(Cc4cccc(OC)c4)c(=O)c4sccc43)n2)c1 | 1150 |
| CCN(C(=O)c1cc2c(s1)N(C)CCCC2)C(C)C | 1020 |

| Structure (SMILES) | RP-LC retention time [s] |
| --- | --- |
| O=C(c1cccs1)N1CCCC1c1nc(-c2ccc(F)cc2F)no1 (configuration not stated) | 926 |
| COc1ccc(-c2nc3cnccn3c2Nc2cccc(Cl)c2)cc1 | 961 |
| CCOc1nccnc1NC1CCN(C(=O)c2ccn(CC)n2)CC1 | 669 |
| Cc1oc(-c2cccs2)nc1CSc1ncnc2nc[nH]c12 | 714 |
| N#Cc1ccc(C(=O)NCCn2c(C(F)(F)F)nc3cccnc32)cc1 | 720 |
| CCCCN(C)S(=O)(=O)c1cc(-c2nnc(C(C)C)o2)co1 | 984 |
| CN(C)S(=O)(=O)c1ccc(Oc2ccc(S(=O)(=O)N(C)C)cc2)cc1 | 824 |
| O=S(=O)(NCc1ccco1)c1ccc(Cl)c(-c2nnc(-c3ccccc3)o2)c1 | 980 |
| CC(NS(=O)(=O)c1cccc(Cl)c1)C(=O)Nc1ccc(Br)cc1F (configuration not stated) | 912 |
| Fc1ccc(-c2csc(Nc3ccccn3)n2)cc1 | 896 |
| CCOc1ccc(NC(=O)c2c(C)sc3ncnc(N4CCCC(C)C4)c23)cc1 (configuration not stated) | 1200 |
| Cc1nn(-c2nc(-c3ccc(Cl)cc3)cs2)c(C)c1CC(=O)N1CCOCC1 | 1030 |
| CCn1nccc1-c1cccc(-c2noc(-c3cccc(NC(=O)c4ccco4)c3)n2)c1 | 1080 |
| Cc1ccc(-c2ccc3nn(Cc4nc(-c5ccc(OC(F)(F)F)cc5)no4)c(=O)n3n2)cc1 | 1120 |
| COc1cc(OC)c2c(C)c(CC(=O)N3CCC(C(N)=O)CC3)c(=O)oc2c1 | 649 |
| Cn1cnc(S(=O)(=O)N2CC(n3cc(C(=O)NCC4CC4)nn3)C2)c1 | 622 |
| OCc1cc2c(cn1)[nH]c1ccccc12 | 637 |
| CCCN(CCC)c1nc(C(=O)OCC)nc2ccccc12 | 812 |

The next lines start with the values.

| RP-LC retention time [s] | Structure (SMILES) |
| --- | --- |
| 833 | COc1ccc(-n2c(=O)n(C)c(=O)c3cc(C(=O)NCc4cccc(OC)c4)cnc32)cc1 |
| 770 | COC(=O)c1c(C)[nH]c(C(=O)N2CCC(CC(=O)NCc3cccc(Cl)c3)CC2)c1C |
| 795 | CC(C)OCCCNC(=O)c1cc2n(n1)CCCN(Cc1ccc(F)cc1)C2=O |
| 850 | O=C(Cn1c(=O)c2cccn2c2ccc(F)cc21)NC1CCCCC1 |
| 1110 | CCc1cc(-c2csc(S(=O)(=O)N3CCc4ccccc4C3)c2)on1 |
| 749 | N#Cc1cccc(-c2cn3c(n2)N(C(=O)c2cccc(F)c2)CCC3)c1 |
| 667 | CCC(=O)N1CCc2cc(-c3ccc(C(=O)N4CCC(C(N)=O)CC4)cc3)ccc21 |
| 694 | COc1ccc(C2CCCN2C(=O)c2cnn3cccnc23)cc1 (configuration not stated) |
| 890 | Cc1ccccc1CNC(=O)C1(C)CCCN(C(=O)NCc2ccc(F)cc2)C1 (configuration not stated) |
| 652 | CCOC(=O)C1=C(CN(C)Cc2ccccc2)NC(=O)NC1c1ccccc1 (configuration not stated) |
| 949 | O=C(Cc1ccccc1)N1CCCC1c1nc(-c2ccccc2)no1 (configuration not stated) |
| 653 | Cc1cnc(-c2ccccc2)n1C1CN(S(=O)(=O)c2cccs2)C1 |
| 778 | COc1ccc(-c2noc(-c3ccc(N4CCN(C5CCCCC5)CC4)nc3)n2)cc1 |
| 661 | CCOC(=O)N1CCN(C(=O)CSc2ccc(-c3ccco3)nn2)CC1 |
| 594 | O=C(NCCCn1ccnc1)C1CC(=O)N(CCc2c[nH]c3ccc(F)cc23)C1 (configuration not stated) |
| 798 | Cc1cccc(CNC(=O)C2(C)Cn3cnc(C(=O)NCc4ccc(F)cc4)c3C(=O)N2C2CC2)c1 (configuration not stated) |
| 807 | O=c1c(NC2CCCCCC2)nc2ccncc2n1Cc1ccccc1 |
| 765 | O=C(NCC1CCN(S(=O)(=O)C2CC2)CC1)Nc1ccccc1C(F)(F)F |
| 1210 | CCOc1ccc(-c2noc(Cn3c(=O)n(CC(C)C)c(=O)c4ccccc43)n2)cc1 |
| 704 | O=C(Cc1cccs1)NC1CCN(C(=O)c2cc(-c3cccs3)[nH]n2)CC1 |
| 718 | CCc1cccc(NC(=O)Cn2c(CC)nc3c(c2=O)CN(Cc2ccccc2)CC3)c1 |
| 1080 | O=C(Nc1cc(C(F)(F)F)ccc1Cl)c1ccc(S(=O)(=O)N2CCCCC2)cc1 |
| 708 | Cc1ccc(-c2ccc(N3CCCC(C(=O)NCCCOC(C)C)C3)nn2)cc1C (configuration not stated) |
| 618 | CCN1CCN(CC2CCN(S(=O)(=O)Cc3cccc(Cl)c3)CC2)CC1 |
| 863 | CCn1cc(-c2nc(C)c(C(=O)Nc3ccc(N4CCOCC4)cc3)s2)c2cccnc21 |

| RP-LC retention time [s] | Structure (SMILES) |
| --- | --- |
| 595 | COc1ccccc1OCC1c2ccsc2CCN1C(=O)CN(C(=O)NC(C)C)C(C)(C)C (configuration not stated) |
| 1020 | COc1ccc(N2CCN(c3cc(SCC(=O)Nc4ccc(C)cc4C)ncn3)CC2)cc1 |
| 1080 | CCCN1C(=O)c2cc(S(=O)(=O)Nc3ccccc3C)ccc2Oc2cccnc21 |
| 1220 | CCc1cc(=O)n(CC(=O)Nc2cccc(Cl)c2)c(-c2ccccc2)n1 |
| 733 | CC(C)n1c(=O)c(NCc2ccc(OC(F)(F)F)cc2)nc2ccncc21 |
| 762 | COC(=O)c1ncn2c1C(=O)N(Cc1ccccc1Cl)C(C)(C(=O)NCc1ccccc1)C2 (configuration not stated) |
| 800 | CCc1nnc(NC(=O)CN2C(=O)C3CCCCN3c3ccc(S(=O)(=O)N(C)C)cc32)s1 (configuration not stated) |
| 916 | CCn1c(C(=O)NCCCOC(C)C)cc2c(=O)oc3ccccc3c21 |
| 912 | O=S(=O)(c1ccccc1Cl)N1CCC(OCc2noc(C3CCCO3)n2)CC1 (configuration not stated) |
| 827 | CCC(=O)N1CCc2sc(C(=O)N3CCN(c4ccccc4F)CC3)cc2C1 |
| 826 | CC(=O)N1CCc2cc(S(=O)(=O)C(C)CC(=O)N3CCN(c4ccccc4F)CC3)ccc21 (configuration not stated) |
| 965 | CCc1ccc(CNC(=O)CN2CCc3ccccc3C2C(=O)N2CCCCC2)cc1 (configuration not stated) |
| 875 | Cc1ccc(N2C(=O)CN(S(=O)(=O)c3ccccc3)CC2(C)C(=O)NCc2ccc(F)cc2)cc1 (configuration not stated) |
| 805 | O=C(NCCc1c[nH]c2ccc(Cl)cc12)c1cc(-c2cccnc2)nc2ccccc12 |
| 734 | O=C(Nc1ccc2c(c1)OCCO2)C1CCN(C(=O)c2ccccc2F)CC1 |
| 663 | CC12CC(NC(=O)N1c1cccc(C(=O)N3CCOCC3)c1)c1ccccc1O2 (configuration not stated) |
| 630 | CCn1ccc(C(=O)N2CCC(CC(=O)NC3CC3)C2)n1 (configuration not stated) |
| 663 | COCCN1C(=O)c2cccn2CC1CNC(=O)Nc1ccc2c(c1)OCCO2 (configuration not stated) |
| 804 | COc1cccc(N2CCN(c3ccnc(SCC(=O)Nc4ccc(F)cc4F)n3)CC2)c1 |
| 966 | CCOc1ccccc1-c1noc(Cn2c(=O)n(CC3CCCO3)c(=O)c3ccccc32)n1 (configuration not stated) |
| 909 | O=C(c1cc(Cl)ccc1F)N1CCN(C(=O)c2nnn3c2COC(c2ccccc2)C3)CC1 (configuration not stated) |
| 733 | CCC(C)C(NC(=O)Cc1cccc(OC)c1)C(=O)Nc1nc2ccccc2[nH]1 (configuration not stated) |
| 1140 | O=C(CCCc1ccccc1)N1CCCC1c1nc(-c2ccccc2Cl)no1 (configuration not stated) |
| 789 | O=C(Cc1ccc(F)cc1)NC1CCN(c2cc(-c3ccc(Cl)cc3)[nH]n2)C1 (configuration not stated) |
| 801 | CCOc1ccc(NC(=O)C2CCN(S(=O)(=O)c3ccc4c(c3)NC(=O)CO4)CC2)cc1 |
